Converted amounts (≈) assume the structure as drawn. “And” between values parts separate entries of the source, which are not always exact repeats. Equal entries are not always repeated.
Tests used:
L1210 cells [1] = test: Inhibition of incorporation of 3H-thymidine into the acid-insoluble fraction of L1210 cells; assay type: cell-based; conditions: Mus musculus; 10^-5 M; L1210 cells in tissue culture
Description: (§1) In this example compound 30 was tested for antitumor activity in mice. […] A 10^-5 M concentration of compound 30 caused 50% inhibition of the incorporation of ^3 H-thymidine and ^3 H-uridine into the acidinsoluble fraction of L1210 cells in tissue culture. […] Ara C (cytosine arabinoside) was included as a standard.

adenovirus, type 3 = test: In vitro antiviral, inhibition of virus-induced cytopathogenic effect (CPE), AV/3; assay type: cell-based; conditions: KB or RK-13 cells, VR >0.5 significant, <0.5 slight antiviral activity
[2] = test system: Parainfluenza virus, type 3; test: In vitro antiviral, inhibition of virus-induced CPE, PIV/3; assay type: cell-based; conditions: PIV/3; KB or RK-13 cells; VR >0.5 significant, <0.5 slight antiviral activity
Escherichis = test: In vitro antibacterial, broth dilution assay, Escherichia; assay type: cell-based; conditions: 24 h, read-out: Average MIC
Description: (§2) In this example compounds 7 and 30 were tested to determine their in vitro antibacterial activity. Clinical isolates of pathogens were used for this example. In vitro sensitivity of these organisms were quantitatively determined by broth dilution assay. Serial dilutions were prepared in chemically defined medium in a range from 100 to 0.01 μg/ml. The minimal Inhibitory Concentration (MIC) was recorded as the highest dilution of compound which prevented visible growth of the pathogen following 24 hr incubation at 35°.

influenza virus, type Ao = test: In vitro antiviral, inhibition of virus-induced CPE, IV/Ao; assay type: cell-based; conditions: KB or RK-13 cells, VR >0.5 significant, <0.5 slight antiviral activity
myxoma virus = test: In vitro antiviral, inhibition of virus-induced CPE, MV; assay type: cell-based; conditions: KB or RK-13 cells, VR >0.5 significant, <0.5 slight antiviral activity
Description: (§3) In this example, compounds 3, 4, 13, 16, 20, 22, 29 and 30 were tested to determine their in vitro antiviral efficacy, using the inhibition virus-induced cytopathogenic effect (CPE) method of Sidwell, et al. (Applied Microbiology 22:797-801, 1971). Briefly, the CPE procedure includes the suspension of the antiviral agent in a cell culture medium consisting of vitamins, amino acids, serum, buffer, penicillin, streptomycin and indicator dye in water. The virus suspended in the cell culture medium was added to an established monolayer of KB cells or RK-13 cells, and an equal volume of the antiviral agent was then added within 15 minutes. The infected treated cells were graded following microscopic examination. Controls for each experiment include cell controls cells and cell culture medium only), virus controls (cell and virus cell culture medium) and toxicity controls (cells and chemical and cell culture medium).
(§4) The virus rating (VR) system of Sidwell et al., described in Applied Microbiology, supra, was used to evaluate the degree of significance of CPE inhibition.

rhinovirus, type 56 = test: In vitro antiviral, inhibition of virus-induced CPE, RV/56; assay type: cell-based; conditions: KB or RK-13 cells, VR >0.5 significant, <0.5 slight antiviral activity
murine cytomegalovirus = test: In vitro antiviral, inhibition of virus-induced CPE, MCMV; assay type: cell-based; conditions: KB or RK-13 cells, VR >0.5 significant, <0.5 slight antiviral activity
Description: as §3, §4

pseudorabies virus = assay type: cell-based; conditions: PRV; KB or RK-13 cells; VR >0.5 significant, <0.5 slight antiviral activity
[3] = test system: parainfluenza virus, type 1; test: In vitro antiviral, inhibition of virus-induced CPE, PIV/1; assay type: cell-based; conditions: PIV/1; KB or RK-13 cells; VR >0.5 significant, <0.5 slight antiviral activity
leukemia L1210 = test: Activity against leukemia L1210 in BDF1 female mice; assay type: in vivo; conditions: qd [1-9]
Description: as §1
All animals were inoculated (i.p) with 10^5 leukemic cells. Treatment
was started 24 hours after transplant. Figures in parenthesis denote 21

rhinovirus, type 8 = test: In vitro antiviral, inhibition of virus-induced CPE, RV/8; assay type: cell-based; conditions: KB or RK-13 cells, VR >0.5 significant, <0.5 slight antiviral activity
[4] = test system: herpes simplex virus, type 1; test: In vitro antiviral, inhibition of virus-induced CPE, HSV/1; assay type: cell-based; conditions: KB or RK-13 cells, VR >0.5 significant, <0.5 slight antiviral activity
rhinovirus, type 30 = test: In vitro antiviral, inhibition of virus-induced CPE, RV/30; assay type: cell-based; conditions: KB or RK-13 cells, VR >0.5 significant, <0.5 slight antiviral activity
Description: as §3, §4

LD10 = test: LD10; set-up: species or system mice; conditions: mouse, in vivo
[5] = test system: vesicular stomatitis virus; assay type: cell-based; conditions: VSV; KB or RK-13 cells; VR >0.5 significant, <0.5 slight antiviral activity
L1210 cells [6] = test: Cytotoxicity to L1210 cells in tissue culture; assay type: cell-based
Description: as §1

vaccinia virus = assay type: cell-based; conditions: VV; KB or RK-13 cells; VR >0.5 significant, <0.5 slight antiviral activity
human cytomegalovirus = test: In vitro antiviral, inhibition of virus-induced CPE, HCMV; assay type: cell-based; conditions: KB or RK-13 cells, VR >0.5 significant, <0.5 slight antiviral activity
RV/2: rhinovirus, type 1 = test: In vitro antiviral, inhibition of virus-induced CPE, RV/2; assay type: cell-based; conditions: KB or RK-13 cells, VR >0.5 significant, <0.5 slight antiviral activity
adenocarcinoma 755 = test: Inhibition of growth of subcutaneous implants of adenocarcinoma 755 in C57 Blk/6 female mice; assay type: in vivo; conditions: 40 mg/kg i.p. (qd, 1-7)
rhinovirus, type 1A = test: In vitro antiviral, inhibition of virus-induced CPE, RV/1A; assay type: cell-based; conditions: KB or RK-13 cells, VR >0.5 significant, <0.5 slight antiviral activity
rhinovirus, type 13 = test: In vitro antiviral, inhibition of virus-induced CPE, RV/13; assay type: cell-based; conditions: KB or RK-13 cells, VR >0.5 significant, <0.5 slight antiviral activity
L1210 cells [7] = test: Inhibition of incorporation of 3H-uridine into the acid-insoluble fraction of L1210 cells; assay type: cell-based; conditions: Mus musculus; 10^-5 M; L1210 cells in tissue culture
Description: as §1

Hela cells = test: Cytotoxicity to Hela cells in tissue culture; assay type: cell-based
Proteus = test: In vitro antibacterial, broth dilution assay, Proteus; assay type: cell-based; conditions: 24 h, read-out: Average MIC
Description: as §2

Nc1cc2nc[nH]c2c(=O)[nH]1 [Compound 30, 6-Amino-imidazo[4,5c]pyridin-4(5H)one]
inhibition at 10 µM (L1210 cells [1]): 50%
Virus rating (VR) (adenovirus, type 3): 1.1
Virus rating (VR) [2]: 1.0
MIC (Escherichis): 6 µg/mL (≈ 40 µM)
Virus rating (VR) (influenza virus, type Ao): 0.5
Virus rating (VR) (myxoma virus): 0.9
Virus rating (VR) (rhinovirus, type 56): 1.1
Virus rating (VR) (murine cytomegalovirus): 0.6
Virus rating (VR) (pseudorabies virus): 0.3
Virus rating (VR) [3]: 1.0
21 day survivors (leukemia L1210; 20 mg/kg i.p.): 0/6
Average Mean Survival (leukemia L1210; 20 mg/kg i.p.): 10.83 days
T/C (leukemia L1210; 20 mg/kg i.p.): 1.32
increased the life span (leukemia L1210; 20 mg/kg i.p.): 32%
ΔWt. (leukemia L1210; 20 mg/kg i.p.): +2.0 g
21 day survivors (leukemia L1210; 40 mg/kg i.p.): 1/6
Average Mean Survival (leukemia L1210; 40 mg/kg i.p.): 12.00 days
T/C (leukemia L1210; 40 mg/kg i.p.): 1.43
increased the life span (leukemia L1210; 40 mg/kg i.p.): 43%
ΔWt. (leukemia L1210; 40 mg/kg i.p.): +0.4 g
21 day survivors (leukemia L1210; 80 mg/kg i.p.): 0/6
Average Mean Survival (leukemia L1210; 80 mg/kg i.p.): 13.33 days
T/C (leukemia L1210; 80 mg/kg i.p.): 1.63
increased the life span (leukemia L1210; 80 mg/kg i.p.): 63%
ΔWt. (leukemia L1210; 80 mg/kg i.p.): +1.7 g
Virus rating (VR) (rhinovirus, type 8): 1.3
Virus rating (VR) [4]: 1.3
Virus rating (VR) (rhinovirus, type 30): 0.3
LD10 (LD10): 500 mg/kg
Virus rating (VR) [5]: 1.3
cytotoxic to L1210 cells (L1210 cells [6]): cytotoxic
Virus rating (VR) (vaccinia virus): 1.2
Virus rating (VR) (human cytomegalovirus): 0.3
Virus rating (VR) (RV/2: rhinovirus, type 1): 1.3
inhibition of the growth of subcutaneous implants (adenocarcinoma 755): 75% and 93%
Virus rating (VR) (rhinovirus, type 1A): 0.3
Virus rating (VR) (rhinovirus, type 13): 1.2
inhibition at 10 µM (L1210 cells [7]): 50%
cytotoxic to Hela cells (Hela cells): cytotoxic
MIC (Proteus): 25 µg/mL (≈ 167 µM)

Source: patent US4056674A, “Derivatives of 3-deazaguanine” (priority 1975, dated 1977)
